In patent publication US20240404621A1, “THERAPEUTIC DEVELOPMENT PLATFORM COMPRISING VARIANT CAPTURE MAPS AND OTHER VISUALIZATIONS” (The Scripps Research Institute, priority 2021, published 2024):

Key:
F508del CFTR [1] = target: T1, F508del CFTR (Homo sapiens, UniProt P13569, DEL508-508); test: steady-state CICon at the cell surface of WT and F508del; format: cell-based; settings: F508del relative to WT
T1 construct: expressed in transfected cells
Excerpt: (§1) FIG. 2 illustrates an example process of variant spatial profiling (VSP) to generate a phenotype landscape 300 of FIG. 1. VSP uses a sparse collection of variants with known position and phenotypical traits. Each of the variants is positioned on the x-axis by their normalized position in the linear polypeptide sequence, where the full-length chain is assigned a value of 1.0, referred to as the variant sequence position (VarSeqP). The value of a phenotypic feature of each variant's (in this example the trafficking index, TrIdx) to the y-axis. The trafficking index (TrIdx) is the normalized ratio of the fraction of variants exported from the ER relative to the total variant level in the cell, where the value of the WT CFTR TrIdx is assigned a value of 1.0. In this example, the sequence position and TrIdx values are correlated to CFTR chloride conductance (CICon). The normalized CICon is assigned to the z-coordinate, where the value of the WT CFTR CICon is assigned a value of 1.0.
To assess how TrIdx is coupled to CICon at the cell surface in response to ELEXA or TRIKA, we assessed the steady-state CICon at the cell surface of WT and F508del. […] To understand the impact of ELEXA and TRIKA on the SCV relationships spanning the entire CFTR polypeptide, we measured the CICon responses for 64 CF variants. […]

F508del CFTR [2] = target: T1, F508del CFTR; test: total level and trafficking (TrIdx) of F508del in F508del-CFBE41o− cells; format: cell-based
Excerpt: as §1
Referring now to FIG. 13, to address whether the correction of CICon in response to temperature is due to energetic features associated with global SCV relationships responsible for membrane trafficking of CFTR from the ER, we built the VarC map for the CFTR trafficking index (TrIdx) of variants following shift from 37° C. to 27° C. TrIdx quantifies the amount of CFTR in post-ER compartments relative to total CFTR in the cell as a measure of efficiency of ER export. The pairwise-residue based TS/TrIdx-VarC map (FIG. 13, upper left panel) and its corresponding TS/TrIdx-functional-response-structure (FIG. 13, upper second from left panel) reveal that only a limited subset of sequence residues contributes to TrIdx correction upon temperature shift. These include: 1) a sequence region containing F508 (FIG. 13, upper left panel, inset zoom); 2) a region in NBD1 domain including variants L558S, A559T, R560K/T and Y569D that are surrounding the CFTR di-acidic code (YKDAD (residues 563-567)) required for COPII dependent ER export (FIG. 13 upper left panel, inset zoom); 3) a sequence region in ICL4 that is reported by CF variants L1065P and L1077P (13) (FIG. 13, upper left panel, inset zoom). Even though separated in primary sequence, these responding regions cluster together in structure (FIG. 13, upper second from left panel). Overlap of MDC maps and corresponding MDC structures between TS/CICon and TS/TrIdx identifies a common energetic sensitive core (FIG. 13, right side, red) responding to temperature shift for both TrIdx and CICon function. This SCV based energetic sensitive core contains the F508-L1065 covariant link that bridges NBD1 (F508) and ICL4 (L1065) (FIG. 13, right panel, inset zoom, red), mechanistically explaining the previous observation that the NBD1-ICL4 interaction is crippled by F508del.
Consistent with previous results, using F508del-CFBE41o− cells, a bronchial epithelial cell line stably expressing the F508Del CFTR transgene, we found ELEXA alone can increase both the total level and the trafficking efficacy of F508del.
To test whether we can add value to the pairwise-residue networks targeted by TRIKA to improve TRIKA benefit for CF by restoring the lost energetics of the fold in response to F508del affecting the function of di-acidic exit code, we measured the impact of ELEXA and TRIKA impact on F508del at 27° C.

[3] = F508del at 27° C. compared to 37° C.
[4] = F508del-CFBE41o− cells, compound alone

T1 sequence (P13569 with tags, fused parts or gaps DEL508-508): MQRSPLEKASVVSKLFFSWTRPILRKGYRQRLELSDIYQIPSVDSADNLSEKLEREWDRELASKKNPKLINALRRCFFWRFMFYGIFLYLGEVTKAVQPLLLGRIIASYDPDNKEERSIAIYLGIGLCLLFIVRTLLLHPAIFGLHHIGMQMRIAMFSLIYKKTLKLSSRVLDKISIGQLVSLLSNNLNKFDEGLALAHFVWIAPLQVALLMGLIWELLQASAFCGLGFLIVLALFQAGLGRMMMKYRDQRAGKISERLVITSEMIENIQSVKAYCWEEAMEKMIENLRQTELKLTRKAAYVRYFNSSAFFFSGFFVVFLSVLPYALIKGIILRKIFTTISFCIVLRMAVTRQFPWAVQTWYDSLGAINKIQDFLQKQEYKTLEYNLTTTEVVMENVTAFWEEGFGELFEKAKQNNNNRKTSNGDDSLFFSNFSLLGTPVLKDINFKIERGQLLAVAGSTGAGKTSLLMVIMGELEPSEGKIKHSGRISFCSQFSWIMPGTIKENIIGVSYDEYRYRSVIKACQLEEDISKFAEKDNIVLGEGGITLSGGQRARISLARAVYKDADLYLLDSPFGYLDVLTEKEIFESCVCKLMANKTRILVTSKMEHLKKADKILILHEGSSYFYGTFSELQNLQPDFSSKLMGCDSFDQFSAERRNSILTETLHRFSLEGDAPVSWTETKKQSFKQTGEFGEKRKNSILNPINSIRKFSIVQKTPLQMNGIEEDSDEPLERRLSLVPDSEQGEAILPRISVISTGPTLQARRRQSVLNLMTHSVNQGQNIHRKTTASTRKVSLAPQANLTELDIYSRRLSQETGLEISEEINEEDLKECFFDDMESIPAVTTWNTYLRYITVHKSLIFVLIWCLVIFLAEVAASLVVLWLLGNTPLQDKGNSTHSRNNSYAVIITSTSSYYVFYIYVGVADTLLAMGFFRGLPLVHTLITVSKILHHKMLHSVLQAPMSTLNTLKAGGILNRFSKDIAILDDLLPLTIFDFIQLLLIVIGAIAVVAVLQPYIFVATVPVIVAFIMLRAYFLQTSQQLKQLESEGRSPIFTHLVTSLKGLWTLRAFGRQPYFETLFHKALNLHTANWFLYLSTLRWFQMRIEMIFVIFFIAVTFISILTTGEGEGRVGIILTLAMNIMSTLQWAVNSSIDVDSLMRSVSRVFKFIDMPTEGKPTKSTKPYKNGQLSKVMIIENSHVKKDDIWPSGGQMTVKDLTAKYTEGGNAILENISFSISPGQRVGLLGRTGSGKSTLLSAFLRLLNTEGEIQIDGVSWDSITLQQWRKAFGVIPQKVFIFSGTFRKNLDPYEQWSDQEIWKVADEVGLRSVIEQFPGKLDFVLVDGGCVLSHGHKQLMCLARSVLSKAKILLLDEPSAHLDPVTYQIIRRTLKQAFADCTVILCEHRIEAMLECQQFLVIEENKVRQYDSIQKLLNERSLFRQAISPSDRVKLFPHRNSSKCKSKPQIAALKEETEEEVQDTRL

SMILES | CICon function for F508del (F508del CFTR [1]) | level of post-ER band C (F508del CFTR [2]; [3]) | total CFTR (F508del CFTR [2]; [3]) | trafficking efficiency (band C relative to total) (F508del CFTR [2]; [3]) | total level of F508del (F508del CFTR [2]; [4]) | trafficking efficacy of F508del (F508del CFTR [2]; [4]) | impact on TrIdx (F508del CFTR [2]; F508del-CFBE41o− cells, IVA added to ELEXA)
Cc1nn(C)cc1S(=O)(=O)NC(=O)c1ccc(-n2ccc(OCC(C)(C)C(F)(F)F)n2)nc1N1C[C@@H](C)CC1(C)C [ELEXA, Elexacaftor] | ~20 % of WT | dramatic improvement | dramatic improvement | dramatic improvement | can increase | can increase | –
CC(C)(C)c1cc(C(C)(C)C)c(NC(=O)c2c[nH]c3ccccc3c2=O)cc1O [IVA, Ivacaftor] | – | – | – | – | – | – | no additional impact
